Patent US8410094B2, “Amide compounds, their pharmaceutical compositions, their preparation method and their uses” (Shanghai Institute of Materia Medica, Chinese Academy of …, priority 2008, dated 2013)
Read-outs that look alike come from different tables or passages of the source.

What was measured:
[1] = target: T1, CCR5 (Homo sapiens, UniProt P51681); experiment: Inhibition of CCR5: [35S]GTPγS binding assays (filtration, SPA-WGA) and calcium influx assay, 10 nM RANTES, CHO-CCR5; type: biochemical; conditions: for IC50: inhibition of GTPγS binding induced by 10 nM RANTES, CHO-CCR5; for inhibition at 0.03 µM: read-out: inhibition against CCR5 @30 nM; for inhibition at 0.3 µM: read-out: inhibition against CCR5 @300 nM
T1 construct: expressed in transfected cells
T1 sequence (P51681 whole entry): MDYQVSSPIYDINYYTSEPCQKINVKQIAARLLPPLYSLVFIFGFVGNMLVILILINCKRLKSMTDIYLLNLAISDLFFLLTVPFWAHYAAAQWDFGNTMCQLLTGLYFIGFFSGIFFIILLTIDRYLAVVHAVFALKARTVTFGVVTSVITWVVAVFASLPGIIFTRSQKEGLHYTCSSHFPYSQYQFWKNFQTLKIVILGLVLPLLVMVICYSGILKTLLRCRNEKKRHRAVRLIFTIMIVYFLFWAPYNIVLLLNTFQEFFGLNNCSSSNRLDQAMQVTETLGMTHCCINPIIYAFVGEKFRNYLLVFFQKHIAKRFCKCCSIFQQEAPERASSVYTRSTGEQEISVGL
Experimental: CCR5 belongs to G-Protein-Coupled Receptor (GPCR) family. The developing technology of GPCR-based drugs have been well-developed, among them, the experimental techniques such as ligand-receptor binding assay, GTPγS binding assay and Ca^2+ flux assay have been widely used in drug-screening related to chemokine receptors. The inhibitory activities of the compounds according to the present invention against CCR5 are measured by three methods, i.e., [^35S]GTPγS filter binding assay, SPA-WGA-based [^35S]GTPγS binding assay and calcium influx assay. At the same time, the antiviral activities in cell of the compounds according to the present invention are evaluated by using two kinds HIV-1 subtypes: H4DA5 cell model and PBMC system virus replication model.
A. [^35S]GTPγS Binding Assay
After binding with an agonist, CCR5 experiences a conformation change such that CCR5 interacts with G protein so as to active the G protein. G protein is a tripolymer composed of α-subunit and βγ-subunit. Since the ability of α-subunit binding to GTP depends on the interaction of CCR5 with the agonist, the ability of an agonist for activating CCR5 can be reflected by determining the amount of GTP binding to α-subunit. In a GTPγS binding assay, a ^35S-labeled GTP analogue GTPγS, which can bind with an activated α-subunit without being hydrolyzed, is used to replace GTP in order for eliminating the defect that the amount of GTP binding to G protein can not exactly reflect the activation of CCR5 due to the hydrolysis of GTO by GTPase and for convenience of detection. So, α-subunit binds with GDP when CCR5 is not activated, and after the activation of CCR5, α-subunit binds with GTPγS such that GTPγS irreversible binds to α-subunit. Therefore, the amount of [^35S]-GTPγS binding to α-subunit could reflect the level of CCR5 activated by an agonist. The ability of the agonist for activating CCR5 will decrease when an antagonist is added.
Such experiment has been referred to as GTPγS filtration assay in which [^35S]-GTPγS bound with the free G protein could be separated by membrane filtration.
Alternatively, SPA (Scintillation Proximity Assay) technique can be used to detect the [^35S]-GTPγS bound to G protein, which is called SPA-WGA-based [35S]GTPγS binding assay. The principle of SPA technique is as follows. Sub-atomic particles released during the decay of radioactive atoms, for example β-ray (electron), can excite microspheres at a sufficiently close distance to emit light so as to be detected by a Scintillation Counter. In an aqueous solution, most of the energy of these rays is absorbed by the solvent, and the traveling distance of these rays is limited.
The activation of G protein by CCR5 is determined by the following experiments.
CHO (Chinese hamster ovary cell) permanent cell line expressing CCR5 (CHO-CCR5) (a cell line constructed by Shanghai Targetdrug Ltd.) was lysed with a lysis buffer (5 mM Tris-HCl, pH 7.5, 5 mM EDTA and 5 mM EGTA) and then centrifugated at 15,000×g for 10 min to obtain cell membrane. After the cell membrane was resuspended in a reaction buffer (5 mM Tris-HCl, pH 7.5, 5 mM MgCl2, 1 mM EGTA, 100 mM NaCl), the protein concentration was determined using Bioford Protein Assay Kit manufactured by Bio-Rad Laboratories Inc. Subsequently, GTPγS binding assay was performed in the reaction buffer, wherein the reaction system was 100 μL containing 10 μg membrane protein, 40 μM GDP and 0.5 nM [^35S]-GTPγS (1200 Ci/mmol). After the compound to be tested (the compound was first dissolved in DMSO and then diluted in gradient with the reaction buffer according to the specific situation, wherein the final concentration of DMSO was 1% (v/v) in the whole reaction system) was added and shaken to mix homogeneously, the reaction tube was incubated at 30° C. for 1 hour. After the reaction finished, the tube was placed on ice, and the reaction mixture was diluted with PBS to quench the reaction and filtered under reduced pressure with a GF/C filter membrane. […]

[2] = tested on: HIV-1 NL(AD8) virus; experiment: H4DA5 cell model of virus replication (β-galactosidase reporter); type: cell-based; conditions: for IC50: read-out: IC50 (nM) H4DA5 cell model; for inhibitory activity EC50 level in H4DA5 cell model: stated in words
Experimental: 2. Results of Activity Assay at Cellular Level • 2.1 H4DA5 Cell Model (The Operation was Performed Under P3 Experimental Conditions) • (1) H4DA5 cells: Hela cells expressing human CD4, CCR5 receptor and reporting gene Ltr-lacZ; • (2) Appropriate amounts of H4DA5 cells were plated in 96-well plate and cultured overnight; • (3) The compound to be tested and HIV-1 NL(AD8) virus were added; • (4) Incubation for 3 days (in cell incubator at 37° C.); • (5) Virus replication was determined using β-galactosidase test kit.

[3] = tested on: HIV-1 Ba-L virus; experiment: PBMC system of virus replication model (p24 antigen); type: cell-based; conditions: for IC50: read-out: IC50 (nM) PBMC system of virus replication model
Experimental: 2.2 PBMC System of Virus Replication Model (The Operation was Performed Under P3 Experimental Conditions) • (1) PBMC cells were separated from the blood from two people (using Ficoll gradient separation method); • (2) the PBMC cells were stimulated using PHA and incubated for 3 days in a cell incubator at 37° C. at a density of 2×10^6 cells/ml. • (3) PBMC cells were resuspended in a RF-10 medium (RF-10/IL2) containing 100 U/mL IL-2 (30 uL RF-10/IL2 medium containing 4 times of the final concentration of the compound to be tested and 40 uL RF-10/IL2 medium containing HIV-1 Ba-L virus (1400 pfu/well) were added in the plate (200,000 cells/50 uL/well). • (4) After incubated 24 hours, RF-10/IL2 medium containing 1 time of the final concentration of the compound to be test was added in each well. After infected for 4 days, 100 ul fresh RF-10/IL2 medium containing the compound to be tested at the final concentration to replace the original medium. After incubated for 2 days, the supernatant of each well was collected, and the content of p24 was determined. • (5) The content of P24 antigen in the supernatant of each well was measured by Vironostik p24 test kit to detect the virus replication.

[4] = Human immunodeficiency virus 1, 72 h

Compound: CC(=O)N1CCC(C(=O)N(CCCN2[C@@H]3CC[C@H]2C[C@H](NS(=O)(=O)c2ccc(C)cc2)C3)c2ccc(C)c(Cl)c2)CC1 [Compound 9b, 1-acetyl-N-(3-chloro-4-methylphenyl)-N-(3-(3-exo-p-tolylsulfonamido-8-azabicyclo[3.2.1]oct-8-yl)propyl)-4-piperidinylcarboxamide]
- IC50 [1]: 6 nM
- IC50 [2, 4]: 1 nM
- inhibitory activity EC50 level in H4DA5 cell model [2]: nM level
- IC50 ([3]; Human immunodeficiency virus 1, BAL, PBMC): 0.42 nM
- inhibitory activity EC50 level in PBMC system of virus replication model ([3]; stated in words): nM level

Compound: CC(=O)N1CCC(C(=O)N(CCCN2[C@@H]3CC[C@H]2C[C@H](NC(=O)OCc2ccccc2)C3)c2ccc(C)c(Cl)c2)CC1 [Compound 8, 1-acetyl-N-(3-chloro-4-methylphenyl)-N-(3-(3-exo-benzyloxymethanamido-8-azabicyclo[3.2.1]oct-8-yl)propyl)-4-piperidinylcarboxamide]
- IC50 [1]: 18.3 nM
- IC50 [2, 4]: 220 nM
- inhibitory activity EC50 level in H4DA5 cell model [2]: 100 nM level

Compound: Maraviroc [reference compound]
- IC50 ([2]; Hela cells expressing human CD4, CCR5 and Ltr-lacZ, HIV-1 NL(AD8), 3 days): 1.5 nM
- IC50 ([3]; PHA-stimulated PBMC, HIV-1 Ba-L, p24): 0.35 nM

Compound: CC(=O)N1CCC(C(=O)N(CCCN2C3CCC2CC(NC(=O)Nc2ccc(Cl)c(C(F)(F)F)c2)C3)c2ccc(C)c(Cl)c2)CC1 (stereo not drawn) [Compound 10b, 1-acetyl-N-(3-(3-(3-(4-chloro-3-(trifluoromethyl)phenyl)ureylene)-8-azabicyclo[3.2.1]oct-8-yl)propyl)-N-(3-chloro-4-methylphenyl)-4-piperidinylcarboxamide]
- IC50 [1]: 28.7 nM

Compound: CC(=O)N1CCC(C(=O)N(CCCN2C3CCC2CC(NC(=O)Cc2ccccc2)C3)c2ccc(C)c(Cl)c2)CC1 (stereo not drawn) [Compound 7a, 1-acetyl-N-(3-chloro-4-methylphenyl)-N-(3-(3-exo-(2-phenylacetamido)-8-azabicyclo[3.2.1]oct-8-yl)propyl)-4-piperidinylcarboxamide]
- inhibition at 0.03 µM [1]: 26.2%
- inhibition at 0.3 µM [1]: 64.6%

Compound: CC(=O)N1CCC(C(=O)N(CCCN2C3CCC2CC(NC(=O)c2cccnc2)C3)c2ccc(C)c(Cl)c2)CC1 (stereo not drawn) [Compound 7t, 1-acetyl-N-(3-chloro-4-methylphenyl)-N-(3-(3-exo-nicotinamido-8-azabicyclo[3.2.1]oct-8-yl)propyl)-4-piperidinylcarboxamide]
- inhibition at 0.03 µM ([1]; compound at 30 nM, 10 nM RANTES): 3.36%
- inhibition at 0.3 µM ([1]; compound at 300 nM, 10 nM RANTES): 15.6%
